Source: patent publication US20120270293A1, “STAND[…] TISSUE SPECIMEN PR[…] […] T[…]” (priority 2009, published 2012)

Target: RNase A (Bos taurus, UniProt P61823)
Details: free solution reaction
Protocol: FIG. 13. RNase A at designated amount was incubated with NBF at RT or 4° C. for 5 min and then mixed with 2 μg yeast tRNA and incubated at room temperature for 30 min for RNase A digestion and separated by 2% agarose gel. The tRNA molecules were between 50-100 nucleotides in length.
We have designed a series of direct forward biochemistry experiments to compare various chemical reagents such as formalin, RNA Later, methanol/alcohol, as well as heating conditions (boiling or autoclaving) in inhibiting the RNase bioactivity. […] We also compare the inhibition ability of formalin at room temperature and 4 degree C.

RNase A, sequence (P61823 27-150): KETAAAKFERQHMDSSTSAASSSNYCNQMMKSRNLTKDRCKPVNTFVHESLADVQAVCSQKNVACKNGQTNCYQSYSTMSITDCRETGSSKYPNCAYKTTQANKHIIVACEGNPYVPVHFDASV

C=O [formalin]
inhibiting the RNase bioactivity (compared with RNA Later, methanol/alcohol, boiling or autoclaving): best RNase inhibitor | inhibition ability of formalin at room temperature and 4 degree C (room temperature versus 4 degree C): No difference
